Laboratory results: BigSolDB 2.1

CCCCN(CCCC)CC(O)c1cc(Cl)cc2c1-c1ccc(Cl)cc1/C2=C/c1ccc(Cl)cc1 (stereo not given)
solubility (mole fraction)
Conditions	278.15 K	283.15 K	288.15 K	293.15 K	298.15 K	303.15 K	308.15 K	313.15 K	318.15 K	323.15 K
in ethanol	5.32e-05	7.11e-05	9.63e-05	0.000127	0.000158	0.000213	0.000265	0.000323	0.000401	0.000497
in ethyl acetate	0.00178	0.00233	0.00315	0.00409	0.00538	0.0069	0.009	0.0116	0.0151	0.0201
in methanol	1.34e-05	1.7e-05	2.27e-05	3.03e-05	3.81e-05	4.95e-05	6.28e-05	8.17e-05	0.000105	0.000136
in methyl acetate	0.000656	0.000903	0.00136	0.00186	0.00262	0.00364	0.00495	0.00669	0.00913	0.0126
in n-butanol	0.000137	0.000182	0.000281	0.00038	0.000493	0.00065	0.000851	0.00115	0.00147	0.00187
in n-butyl acetate	0.00423	0.00531	0.00672	0.00864	0.0108	0.0137	0.0175	0.0223	0.0285	0.0359
in n-heptanol	0.000337	0.000437	0.000586	0.000781	0.0011	0.00149	0.00193	0.00245	0.00339	0.0045
in n-hexanol	0.00021	0.000315	0.000477	0.000604	0.000886	0.00119	0.00171	0.00214	0.00289	0.00387
in n-octanol	0.000352	0.000474	0.00073	0.000945	0.00125	0.00172	0.00221	0.00298	0.00385	0.00516
in n-pentanol	0.000215	0.00028	0.000423	0.000555	0.000745	0.000968	0.0013	0.0017	0.0022	0.00288
in n-pentyl acetate	0.00474	0.00654	0.00846	0.011	0.0137	0.0168	0.0211	0.0252	0.0326	0.0406
in n-propanol	8.62e-05	0.000107	0.000145	0.00021	0.000279	0.000388	0.000502	0.000696	0.000967	0.00131
in n-propyl acetate	0.00281	0.00365	0.00485	0.00653	0.00838	0.0109	0.0139	0.018	0.0231	0.0304
